Test results from US9388215B2, “Compositions and methods of using islet neogenesis peptides and analogs thereof” (SHENZHEN HIGHTIDE BIOPHARMACEUTICAL, LTD., priority 2013, dated 2016).

Key:
[1] = Pharmacokinetics in SD rats after single subcutaneous dose (Example X); format: in vivo, rat; settings: plasma, sc, male Sprague-Dawley rat, subcutaneous, 25 mg/kg
Protocol: After 7 days acclimation, a total of 15 male Sprague-Dawley (SD) rats (body weight: 230 to 270 g) in good health from Sino-British SIPPR/BK Lab Animal Ltd, Shanghai, were used in the study. All peptides, Peptide 1, Peptide 12, Peptide 16, Peptide 29 or Peptide 31, were dissolved in sterile normal saline respectively to yield the desired final concentrations and were administered via single subcutaneous (sc) dose.
Three animals in each group were used for blood collection at the time point of 5 min, 15 min, 30 min, 1 h, 2 h, 4 h, 6 h, 8 h and 24 h post-dose. Blood samples (approximately 400 μL) were collected and placed into tubes containing EDTA-K2 (dipotassium ethylene diamine tetraacetic acid) and centrifuged at 8000 rpm for 6 minutes at 4° C. to separate plasma from the samples. The resulting plasma was stored frozen at −80° C. until being analyzed.
Plasma concentrations of peptides were determined using tandem mass spectrometry (LC-MS/MS) analysis. A non-compartmental module of WinNonlin® Professional 5.2 (Pharsight; St. Louis Mo.) was used to calculate PK parameters. AUC(0-t) represents area under the curve from the time of dosing to the time of the last observation, the AUC(0-∞) represents area under the curve from the time of dosing to infinity, and the Cmax represents maximum concentration detected.

[2] = format: physicochemical; settings: pH 7.4
Protocol: Peptide stability in buffers was tested for INGAP-PP and selected analogs. 10 mg/mL of Peptide 1, Peptide 12, Peptide 16, Peptide 29 or Peptide 31 was dissolved in isotonic buffers with pH ranging from 4.0 to 8.0. […] Peptide 12 and Peptide 29 were stable in an isotonic phosphate buffer (pH 7.4) for more than 90 days at 4° C. (there was no sign of degradation at 90 days sample check point), and 60 days at 25° C.

[3] = Peptide stability in mouse plasma; format: in vitro ADME; settings: 100 μg/mL, 37° C.; FIG. 3, 5, 14
Protocol: (§1) The stability of peptides was also tested in mouse and human plasma. Briefly, a certain amount of peptides and eucatropine powder (positive control) was accurately weighed. Test compounds were dissolved in 50% methanol-water solution and diluted to 20 mg/mL, and eucatropine was dissolved in dimethylsulfoxide (DMSO) and diluted to 10 mM, as a stock solution. Eucatropine stock solution was diluted to 0.2 mM with DMSO as a working solution. A stop reagent was prepared containing 200 ng/mL midazolam and tolbutamide in acetonitrile. A volume of 300 μL of stop solution was added to each well of a 96-well deep-well plate placed on ice beforehand.
(§2) For the stability studies, peptides and eucatropine were spiked into plasma respectively, mixed well, and then 100 μL of each mixture solution was transferred into the pre-cooled stop reagent as 0 time point sample. The remaining mixtures were incubated in a 37° C. water bath with shaking at 100 rpm (n=2). The final incubation concentration was 1 for eucatropine and 100 μg/mL for all test compounds.
(§3) At desired time points, 100 μL of incubation mixture was transferred to the stop reagent to precipitate proteins. Samples were vortexed and centrifuged at RCF 5000×g for 10 minutes, and supernatant was transferred to a test plate. The samples were analyzed by LC-MS/MS.
(§4) Slope was calculated by plotting the natural logarithm of the percentage of remaining amount of test compounds and time, and T1/2 was calculated in accordance with the following formula.
For stability in mouse plasma, the incubation time was 0, 5, 15, 30 and 60 min for Peptide 1 and eucatropine; 0, 15, 30, 60, 120, 240 and 480 min for Peptide 12, Peptide 16 and Peptide 29.
In another stability study in mouse plasma, the incubation time was 0, 30, 60 and 120 min for Peptide 2 and eucatropine; 0, 30, 60, 120, 240 and 960 min for Peptide 52 and Peptide 54.
as §1, with “tested in rat, mouse and” for “tested in mouse and”
as §2, with “was 1 μM for eucatropine” for “was 1 for eucatropine”
For stability in mouse plasma, the incubation time was 0, 15, 30, 60 and 120 min for Peptide 1 and eucatropine; 0, 15, 30, 60, 120, and 240 min for Peptide 31.

[4] = Peptide stability in rat plasma; format: in vitro ADME; settings: 100 μg/mL, 37° C.; FIG. 12, 13
Protocol: as §1, with “tested in rat, mouse and” for “tested in mouse and”
as §2, with “was 1 μM for eucatropine” for “was 1 for eucatropine”
as §3, §4
For stability in rat plasma, the incubation time was 0, 15, 30, 60 and 120 min for Peptide 1 and eucatropine, and 0, 15, 30, 60, 120, and 240 min for Peptide 12, Peptide 16, Peptide 29 and Peptide 31.
In another stability study in rat plasma, the incubation time was 0, 30, 60 120 and 240 min for Peptide 2, Peptide 52, Peptide 64 and eucatropine.

[5] = Peptide stability in human plasma; format: in vitro ADME; settings: 100 μg/mL, 37° C.; FIG. 4, 15
Protocol: as §1, §2, §3, §4
For stability in human plasma, the incubation time was 0, 30, 60 and 120 min for Peptide 1, Peptide 12, Peptide 16 and eucatropine.
The stability of peptides was also tested in rat, mouse and human plasma. Briefly, a certain amount of peptides and eucatropine powder (positive control) was accurately weighed. Test compounds were dissolved in 50% methanol-water solution and diluted to 20 mg/mL, and eucatropine was dissolved in dimethylsulfoxide (DMSO) and diluted to 10 mM, as a stock solution. Eucatropine stock solution was diluted to 0.2 mM with DMSO as a working solution. […]

For “Ac-IGLHDPSHGTLPAGS-NH2 [Peptide 29, Ac-IGLHDPSHGTLPAGS-NH2]”, which AUC(0-t) ([1]; read-out: AUC(0-t)) is on record?
Its AUC(0-t) is 14400 ± 1010 ng·h/mL.

And the AUC(0-inf) ([1]; read-out: AUC(0-∞))?
The AUC(0-inf) was 14400 ± 1000 ng·h/mL.

What about the Cmax ([1]; read-out: Cmax) of the same substance?
Its Cmax is 16300 ± 2520 ng/mL.

And the “time stable in isotonic phosphate buffer (pH 7.4) at 4° C.” value [2]?
The value was “more than 90 days”.

What about the “time stable in isotonic phosphate buffer (pH 7.4) at 25° C.” value [2] of the same substance?
The value was 60 days.

What about the “stability in mouse plasma” value [3] of the same substance?
The value was “exhibited good stability in mouse plasma and were more stable than INGAP-PP”.

And the “stability in rat plasma” value [4]?
The value was “exhibited good stability in rat plasma and were more stable than INGAP-PP”.

And the “stability in human plasma” value [5]?
Its value is “exhibited good stability in human plasma and were significantly more stable than INGAP-PP”.
